# Data taken from patent EP0547508A1, “Use of xanthine derivatives for the stabilisation of the auto-regulation of cerebral blood flow” (priority 1991, dated 1993).
# Test system: Ratten
# Assay: Cerebral autoregulation in rats under adrenaline-induced acute hypertension, with or without carotid occlusion (ischaemia/reperfusion)
# Type: in vivo
# Source text: Es werden 36 Ratten unterteilt in drei Gruppen operiert. Die erste Gruppe dient als Kontrolle, d.h. es wird eine akute Hypertonie erzeugt, ohne daß die Carotiden abgeklemmt werden. Die zweite Gruppe wird während der Ischämie und die dritte Gruppe während der Reperfusion mit Adrenalin stimuliert. In jeder Gruppe werden jeweils 6 Tiere mit der Verbindung 1 als Dauerinfusion behandelt.
# Bei einem mittleren arteriellen Druck von 170 mmHg wird in der Kontrollgruppe die cerebrale Autoregulation durchbrochen (entsprechend 3 µg/kg Adrenalin (Firma Sigma)). Die dreifache Dosis führt bei einem Blutdruck von 200 mmHg zum Tod der Tiere. Im Gegensatz dazu ist in der mit Verbindung 1 behandelten Gruppe die dreifache Konzentration und ein mittlerer Druck von 180 mmHg erforderlich um an die Grenze der Autoregulation zu kommen. Der Verschluß beider Carotiden führt bei den Tieren, die mit Verbindung 1 behandelt wurden, zu einer höheren Restdurchblutung (25 %) als bei den Kontrolltieren. Während der Reperfusion bleibt die Gehirndurchblutung in der Kontrollgruppe auf dem niedrigen Niveau von 23 %. Die Autoregulation wird bereits bei 150 mmHg durchbrochen (entsprechend 3 µg/kg/Adrenalin). […] Erst bei 180 mmHg kommt es zum Durchbruch der Autoregulation.
# Alle Kontrolltiere verstarben nach einer Dosis von 10 µg/kg Adrenalin. Die letale Dosis für mit Verbindung 1 behandelte Tiere liegt bei 30 µg/kg Adrenalin. Zusammenfassend läßt sich feststellen, daß die mit Verbindung 1 behandelten Tiere - im Vergleich mit den Kontrolltieren - höhere Blutdruckspitzen und Blutdruckabsenkungen tolerieren und deren Gehirndurchblutungsautoregulation erst bei der 3-fachen Adrenalinkonzentration durchbrochen wird.
structure (smiles),measurement,setting,value
"CCCn1cnc2c1c(=O)n(CCCCC(C)=O)c(=O)n2C [Verbindung 1, 1-(5-Oxohexyl)-3-methyl-7-n-propyl-xanthin]",mittlerer Druck erforderlich um an die Grenze der Autoregulation zu kommen,"acute hypertension by Adrenalin, carotids not clamped, Verbindung 1 as continuous infusion, control group 170 mmHg",180 mmHg
same,Adrenalin-Konzentration erforderlich um an die Grenze der Autoregulation zu kommen,"acute hypertension, carotids not clamped, relative to control group (3 µg/kg Adrenalin)",dreifache
same,Durchbruch der Autoregulation,"during reperfusion, Adrenalin stimulation, control group 150 mmHg",180 mmHg
same,Restdurchblutung,"occlusion of both carotids (ischaemia), higher than in control animals",25%
same,Gehirndurchblutung während der Reperfusion,"reperfusion after carotid occlusion, control group stays at 23 %",erreichen sofort wieder das präischämische Ausgangsniveau
same,Adrenalinkonzentration bei der die Gehirndurchblutungsautoregulation durchbrochen wird,"summary, fold compared with control animals",3
